Measured values taken from patent publication US12522623B2, “Small molecule STAT protein degraders” (THE REGENTS OF THE UNIVERSITY OF MICHIGAN, priority 2020, dated 2026).

Tests used:
Type in all cases: cell-based
MOLM-16 cells = assay: Cell growth inhibition, 4-day proliferation assay (CellTiter-Glo); conditions: MOLM16, 96 h; MOLM-16, 4 days
Method: The effect of representative Compounds of the Disclosure on cell viability was determined in a 4-day proliferation assay. Cells were maintained in the appropriate culture medium at 37° C. and an atmosphere of 5% CO2. All the cell lines were used within three months of thawing fresh vials. Cells were seeded in 384-well white plates (Corning Costar) at a density of 2,000 cells/well in 25 μl of culture medium. Compounds were serially diluted in the appropriate medium, and 25 μl of the diluted compounds were added to the cells. After the addition of compounds, the cells were incubated at 37° C. in an atmosphere of 5% CO2 for 4 days. Cell viability was determined using the CellTiter-Glo® Luminescent Cell Viability Assay Kit (Promega, Madison, WI) according to the manufacturers' instructions. Essentially, 50 μl of CellTiter-Glo® Reagent was added to each well, and then the plates were incubated at room temperature for 20 minutes. The luminescent signal was measured using a Tecan multimode microplate reader (Tecan, Morrisville, NC). The readings were normalized to the DMSO-treated cells and the IC50 was calculated by nonlinear regression (four parameters sigmoid fitted with variable slope, least squares fit, and no constraint) analysis using the GraphPad Prism software.

STAT3 = target: T1, STAT3 (Homo sapiens, UniProt P40763); assay: Fluorescent immunoblotting of STAT3 protein in MOLM-16 cells (estimated DC50); conditions: MOLM-16, 4 h
T1 construct: endogenous in cells; host or cells: MOLM-16 (acute leukemia cells)
T1 sequence (P40763 whole entry): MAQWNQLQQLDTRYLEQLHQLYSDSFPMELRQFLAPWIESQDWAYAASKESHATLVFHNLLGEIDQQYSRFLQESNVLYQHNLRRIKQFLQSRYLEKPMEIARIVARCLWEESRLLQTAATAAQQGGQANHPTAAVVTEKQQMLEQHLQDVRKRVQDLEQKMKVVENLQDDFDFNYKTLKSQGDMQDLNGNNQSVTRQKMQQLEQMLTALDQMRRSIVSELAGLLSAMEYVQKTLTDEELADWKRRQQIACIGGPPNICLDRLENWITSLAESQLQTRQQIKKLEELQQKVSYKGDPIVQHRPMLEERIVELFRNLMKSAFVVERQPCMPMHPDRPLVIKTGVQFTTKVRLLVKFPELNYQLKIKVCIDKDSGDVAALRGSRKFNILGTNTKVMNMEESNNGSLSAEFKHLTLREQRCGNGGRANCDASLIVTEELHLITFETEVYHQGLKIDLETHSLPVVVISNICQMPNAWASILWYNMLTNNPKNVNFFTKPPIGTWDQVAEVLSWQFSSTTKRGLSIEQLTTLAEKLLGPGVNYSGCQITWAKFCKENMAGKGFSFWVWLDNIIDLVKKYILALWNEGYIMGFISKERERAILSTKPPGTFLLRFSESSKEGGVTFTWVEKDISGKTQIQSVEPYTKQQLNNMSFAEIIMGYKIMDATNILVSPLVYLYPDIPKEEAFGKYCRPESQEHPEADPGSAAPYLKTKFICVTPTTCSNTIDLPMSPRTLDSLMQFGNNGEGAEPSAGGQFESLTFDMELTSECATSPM
Method: (§1) In vitro cultured cells or xenograft tumors were lysed 1×Cell Lysis Buffer (Cell Signaling Technology, #9803), resolved by SDS-PAGE NuPAGE gel (Thermo Fisher Scientific), and transferred to a PVDF membrane (Bio Rad). For chemiluminescence immunoblotting, membranes were blocked for 1 h using 5% Blotting-Grade Blocker (#1706404, Bio Rad) in 1×Tris-buffered saline with Tween 20 (TBST, Pierce). Antibodies used were: rabbit mAbs for STAT3 (Cell Signaling Technology, #4368, #12640) and p-STAT3 (Y705) (Cell Signaling Technology, #9245, #52075). HRP conjugated goat anti-rabbit IgG (H+L) (#A27036) secondary antibodies was from Thermo Fisher Scientific. GAPDH (Santa Cruz Technology, sc-47724HRP) and actin (Santa Cruz Technology, sc-8432HRP, sc-47778HRP) were loading controls. For fluorescent immunoblotting, membranes were blocked using Odyssey TBS Blocker Buffer (LI-COR). IRDye 680RD and 800CW Dye-labeled secondary antibodies (LI-COR) were used. The washed membranes were scanned using Odyssey CLx imager (LI-COR). The intensity of Western blot signaling was quantitated using the Odyssey software or Image Studio V5.2 (LI-COR).

STAT1 = target: T2, STAT1 (Homo sapiens, UniProt P42224); assay: Fluorescent immunoblotting of STAT1 protein in MOLM-16 cells (estimated DC50); conditions: MOLM-16, 4 h
T2 construct: endogenous in cells; host or cells: MOLM-16 (acute leukemia cells)
T2 sequence (P42224 1-750): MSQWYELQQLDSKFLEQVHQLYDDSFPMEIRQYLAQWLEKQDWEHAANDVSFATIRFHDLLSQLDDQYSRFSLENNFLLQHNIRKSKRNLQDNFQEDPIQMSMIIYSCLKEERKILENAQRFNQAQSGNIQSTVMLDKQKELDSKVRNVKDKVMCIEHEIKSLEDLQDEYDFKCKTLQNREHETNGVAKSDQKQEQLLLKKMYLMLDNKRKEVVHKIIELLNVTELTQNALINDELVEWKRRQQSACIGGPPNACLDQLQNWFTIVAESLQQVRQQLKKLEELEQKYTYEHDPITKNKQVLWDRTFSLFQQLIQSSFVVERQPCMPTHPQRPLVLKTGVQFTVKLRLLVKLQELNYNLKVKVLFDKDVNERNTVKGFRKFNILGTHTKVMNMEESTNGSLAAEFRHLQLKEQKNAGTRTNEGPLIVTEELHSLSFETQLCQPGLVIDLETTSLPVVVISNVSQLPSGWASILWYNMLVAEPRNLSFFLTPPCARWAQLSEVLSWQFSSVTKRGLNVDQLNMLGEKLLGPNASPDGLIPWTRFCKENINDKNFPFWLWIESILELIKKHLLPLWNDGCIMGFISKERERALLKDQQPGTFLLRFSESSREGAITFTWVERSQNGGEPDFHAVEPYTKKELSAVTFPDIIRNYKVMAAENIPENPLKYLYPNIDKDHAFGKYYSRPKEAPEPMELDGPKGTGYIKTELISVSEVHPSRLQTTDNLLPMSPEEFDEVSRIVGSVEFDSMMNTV
Method: as §1

Structure (SMILES) | IC50 (MOLM-16 cells) | DC50 (STAT3) | DC50 (STAT1)
NC(=O)CC[C@H](NC(=O)[C@@H]1CC[C@@H]2CCN(C(=O)CCCCCC#Cc3cccc4c3CN(C3CCC(=O)NC3=O)C4=O)C[C@H](NC(=O)c3cc4cc(C(F)(F)P(=O)(O)O)ccc4s3)C(=O)N21)c1ncc(-c2ccccc2)s1 (stereo partly drawn) [Cpd. No. 2, ((2-(((5S,8S,10aR)-8-(((S)-4-amino-4-oxo-1-(5-phenylthiazol-2-yl)butyl)carbamoyl)-3-(8-(2-(2,6-dioxopiperidin-3-yl)-1-oxoisoindolin-4-yl)oct-7-ynoyl)-6-oxodecahydropyrrolo[1,2-a][1,5]diazocin-5-yl)carbamoyl)benzo[b]thiophen-5-yl)difluoromethyl)phosphonic acid] | 49 nM | 100 nM | > 1000 nM
CCN1CC[C@H]2CC[C@@H](C(=O)N[C@@H](CCS(C)(=O)=O)C(=O)N[C@@H](Cc3ccc(C(C)(C)C)cc3)C(=O)N3CCC(CCC#Cc4cccc5c4CN(C4CCC(=O)NC4=O)C5=O)CC3)N2C(=O)[C@@H](NC(=O)c2cc3cc(C(F)(F)P(=O)(O)O)ccc3s2)C1 (stereo partly drawn) [Cpd. No. 18, ((2-(((5S,8S,10aR)-8-(((2S)-1-(((2S)-3-(4-(tert-butyl)phenyl)-1-(4-(4-(2-(2,6-dioxopiperidin-3-yl)-1-oxoisoindolin-4-yl)but-3-yn-1-yl)piperidin-1-yl)-1-oxopropan-2-yl)amino)-4-(methylsulfonyl)-1-oxobutan-2-yl)carbamoyl)-3-ethyl-6-oxodecahydropyrrolo[1,2-a][1,5]diazocin-5-yl)carbamoyl)benzo[b]thiophen-5-yl)difluoromethyl)phosphonic acid] |  | < 250 nM | > 1000 nM
CCN1CC[C@H]2CC[C@@H](C(=O)N[C@@H](CCn3ccnc3)C(=O)N[C@@H](Cc3ccc(C(C)(C)C)cc3)C(=O)N3CCC(CCC#Cc4cccc5c4CN(C4CCC(=O)NC4=O)C5=O)CC3)N2C(=O)[C@@H](NC(=O)c2cc3cc(C(F)(F)P(=O)(O)O)ccc3s2)C1 (stereo partly shown) [Cpd. No. 19] |  | 250 nM | > 1000 nM
CCN1CC[C@H]2CC[C@@H](C(=O)N[C@@H](CCS(N)(=O)=O)C(=O)N[C@@H](Cc3ccc(C(C)(C)C)cc3)C(=O)N3CCC(CCC#Cc4cccc5c4CN(C4CCC(=O)NC4=O)C5=O)CC3)N2C(=O)[C@@H](NC(=O)c2cc3cc(C(F)(F)P(=O)(O)O)ccc3s2)C1 (stereo partly drawn) [Cpd. No. 20, ((2-(((5S,8S,10aR)-8-(((2S)-1-(((2S)-3-(4-(tert-butyl)phenyl)-1-(4-(4-(2-(2,6-dioxopiperidin-3-yl)-1-oxoisoindolin-4-yl)but-3-yn-1-yl)piperidin-1-yl)-1-oxopropan-2-yl)amino)-1-oxo-4-sulfamoylbutan-2-yl)carbamoyl)-3-ethyl-6-oxodecahydropyrrolo[1,2-a][1,5]diazocin-5-yl)carbamoyl)benzo[b]thiophen-5-yl)difluoromethyl)phosphonic acid] |  | < 250 nM | > 1000 nM
CCN1CC[C@H]2CC[C@@H](C(=O)N[C@@H](CCn3ccnc3[N+](=O)[O-])C(=O)N[C@@H](Cc3ccc(C(C)(C)C)cc3)C(=O)N3CCC(CCC#Cc4cccc5c4CN(C4CCC(=O)NC4=O)C5=O)CC3)N2C(=O)[C@@H](NC(=O)c2cc3cc(C(F)(F)P(=O)(O)O)ccc3s2)C1 (stereo partly drawn) [Cpd. No. 21, ((2-(((5S,8S,10aR)-8-(((2S)-1-(((2S)-3-(4-(tert-butyl)phenyl)-1-(4-(4-(2-(2,6-dioxopiperidin-3-yl)-1-oxoisoindolin-4-yl)but-3-yn-1-yl)piperidin-1-yl)-1-oxopropan-2-yl)amino)-4-(2-nitro-1H-imidazol-1-yl)-1-oxobutan-2-yl)carbamoyl)-3-ethyl-6-oxodecahydropyrrolo[1,2-a][1,5]diazocin-5-yl)carbamoyl)benzo[b]thiophen-5-yl)difluoromethyl)phosphonic acid] |  | > 1000 nM | > 1000 nM
CCN1CC[C@H]2CC[C@@H](C(=O)N[C@@H](CCn3ccnc3N)C(=O)N[C@@H](Cc3ccc(C(C)(C)C)cc3)C(=O)N3CCC(CCC#Cc4cccc5c4CN(C4CCC(=O)NC4=O)C5=O)CC3)N2C(=O)[C@@H](NC(=O)c2cc3cc(C(F)(F)P(=O)(O)O)ccc3s2)C1 (stereo partly drawn) [Cpd. No. 22, ((2-(((5S,8S,10aR)-8-(((2S)-4-(2-amino-1H-imidazol-1-yl)-1-(((2S)-3-(4-(tert-butyl)phenyl)-1-(4-(4-(2-(2,6-dioxopiperidin-3-yl)-1-oxoisoindolin-4-yl)but-3-yn-1-yl)piperidin-1-yl)-1-oxopropan-2-yl)amino)-1-oxobutan-2-yl)carbamoyl)-3-ethyl-6-oxodecahydropyrrolo[1,2-a][1,5]diazocin-5-yl)carbamoyl)benzo[b]thiophen-5-yl)difluoromethyl)phosphonic acid] |  | > 1000 nM | > 1000 nM
